Nine compounds from ChEMBL document CHEMBL1143633, “Synthesis and cytotoxic evaluation of combretafurazans” (J Med Chem, 2005) can be followed below.

The assay deals with SH-SY5Y. The assay is described as follows: Cytotoxicity against SH-SY5Y human neuroblastoma cell line was determined. In kind it is functional, cell-based.

One may read the IC50 as the concentration that inhibits the measured activity by half. `COc1ccc(-c2nonc2-c2cc(OC)c(O)c(OC)c2)cc1O` returned an IC50 of 17.5 nM. This lies in the double-digit nanomolar range. The value for `COc1ccc(C(=O)C(=O)c2cc(OC)c(OC)c(OC)c2)cc1O` was 524 nM; that for `COc1ccc(-c2nonc2-c2cc(OC)c(OC)c(OC)c2)cc1O` was 1.4 nM. The compound `COc1ccc(-c2nonc2-c2cc(OC)c(OC)c(OC)c2)cc1N` registered a half-inhibitory concentration (IC50) of 1.6 nM. This IC50 and that of the compound before are within 1.5-fold of each other.

Consider `COc1ccc(-c2nonc2-c2cc(OC)c(O)c(OC)c2)cc1`, for which it took 196 nM to reach half-maximal inhibition (IC50). This IC50 is about 120-fold higher than that of the compound before. Compound `COc1ccc(/C=C\c2cc(OC)c(OC)c(OC)c2)cc1O` [COMBRETASTATIN A4] gave an IC50 of 5.8 nM. Compound `COc1ccc(C(=N/O)/C(=N\O)c2cc(OC)c(OC)c(OC)c2)cc1O` came in with an IC50 of 254 nM. `COc1ccc(-c2nonc2-c2cc(OC)c(OC)c(OC)c2)cc1[N+](=O)[O-]` had an IC50 of 72.5 nM.

With `COc1ccc(-c2nonc2-c2cc(OC)c(OC)c(OC)c2)cc1`, half-maximal inhibition (IC50) required 8.9 nM.
